Patent US11311522B1 (Cavion, Inc., priority 2018, dated 2022)
Where two headings read alike, the source gives them in different places.

How the values were obtained:
[1] = rodents; from literature; cited from earlier work
[2] = rodents; from literature; cited from earlier work; remark: listed apart in the source
Cav3 = conditions: from literature, cited from earlier work; for IC50: read-out: Cav3 potency
harmaline-induced tremor = conditions: dose levels up to 10 mg/kg; cited from earlier work
[3] = rodents; from literature; cited from earlier work; remark: listed apart in the source
WAG/Rij rats = assay: WAG/Rij rat model of absence epilepsy; assay type: in vivo; conditions: 10 mg/kg oral
Source text: Other T-type antagonists from structurally diverse series have shown similar efficacy in this model (Broicher, 2007; Blumenfeld, 2008; Broicher, 2008; Shipe, 2008; Yang, 2008; Uebele, 2009; Russo, 2010; Russo, 2011).
Data were scored with automated seizure analysis software, averaged, and normalized to enable treatment comparisons (FIG. 76)
Control animals received vehicle administrations. […] Source: Merck TTA Package Description (FIG. 79).

[4] = T-CALM: plasma concentrations by 5-in-1 LC/MS/MS; assay type: in vivo, human; conditions: for Plasma concentration, mean: trough; for concentration at 4 h: human, plasma, oral, 4 hours post-dose
Method: Additionally, at Visit 4, a post-dose sample will be collected as close to 4 hours post-dose as possible, but within the window of 4-6 hours post-dose (i.e., a total of two PK samples are collected at Visit 4.)
Assay performances were satisfactory and met acceptance criteria for system performance suitability, quantitation range, calibration linearity, assay accuracy and precision, and assay recovery.

[5] = Single-dose toxicokinetic study in dogs; assay type: in vivo; conditions: dog, plasma, po, 800 mg/kg
in vivo = conditions: rat, po
[6] = In vitro plasma protein binding, human; assay type: in vitro ADME; conditions: human plasma, read-out: Human-free fraction
[7] = 90-day oral toxicology in Beagle dogs; conditions: Beagle, dog, in vivo, po
Cav3.3 = biological target: T1, Cav3.3 (Homo sapiens, UniProt Q9P0X4); assay: Cav3.3 FLIPR calcium influx assay (HEK 293 cells); assay type: cell-based; conditions: for IC50: Cav3.3 FLIPR assay; for State dependence: hyperpolarized versus depolarized FLIPR potency
T1 construct: expressed in transfected cells; host or cells: HEK 293

[8] = Brain penetration in male rats; assay type: in vivo; conditions: rat, 25 mg/kg
GAERS rats = assay: GAERS rat model of absence epilepsy; conditions: 100 mg/kg oral
[9] = test system: patients with schizophrenia; assay: PN004: safety; assay type: in vivo, human; conditions: Study PN004, subjects with schizophrenia, BID Days 1 to 28; CX-8998 N = 86, Olanzapine N = 47
Source text: The primary efficacy endpoint was the mean change from baseline in the Positive and Negative Syndrome Scale (PANSS) total score at Week 4; secondary efficacy endpoints included responder rates on the PANSS total score at Week 4 and the change from baseline in the Clinical Global Impressions—Severity of Illness Scale at Week 4. Safety was monitored by adverse events, laboratory evaluations, ECGs, Holter monitoring, vital signs, the Simpson-Angus Scale, the Barnes Akathisia Rating Scale, the Abnormal Involuntary Movement Scale, and the Columbia Suicide-Severity Rating scale (C-SSRS).

[10] = depolarized, read-out: Depolarized FLIPR potency
[11] = hyperpolarized, read-out: Hyperpolarized FLIPR potency

T1 sequence (Q9P0X4 whole entry, species assumed): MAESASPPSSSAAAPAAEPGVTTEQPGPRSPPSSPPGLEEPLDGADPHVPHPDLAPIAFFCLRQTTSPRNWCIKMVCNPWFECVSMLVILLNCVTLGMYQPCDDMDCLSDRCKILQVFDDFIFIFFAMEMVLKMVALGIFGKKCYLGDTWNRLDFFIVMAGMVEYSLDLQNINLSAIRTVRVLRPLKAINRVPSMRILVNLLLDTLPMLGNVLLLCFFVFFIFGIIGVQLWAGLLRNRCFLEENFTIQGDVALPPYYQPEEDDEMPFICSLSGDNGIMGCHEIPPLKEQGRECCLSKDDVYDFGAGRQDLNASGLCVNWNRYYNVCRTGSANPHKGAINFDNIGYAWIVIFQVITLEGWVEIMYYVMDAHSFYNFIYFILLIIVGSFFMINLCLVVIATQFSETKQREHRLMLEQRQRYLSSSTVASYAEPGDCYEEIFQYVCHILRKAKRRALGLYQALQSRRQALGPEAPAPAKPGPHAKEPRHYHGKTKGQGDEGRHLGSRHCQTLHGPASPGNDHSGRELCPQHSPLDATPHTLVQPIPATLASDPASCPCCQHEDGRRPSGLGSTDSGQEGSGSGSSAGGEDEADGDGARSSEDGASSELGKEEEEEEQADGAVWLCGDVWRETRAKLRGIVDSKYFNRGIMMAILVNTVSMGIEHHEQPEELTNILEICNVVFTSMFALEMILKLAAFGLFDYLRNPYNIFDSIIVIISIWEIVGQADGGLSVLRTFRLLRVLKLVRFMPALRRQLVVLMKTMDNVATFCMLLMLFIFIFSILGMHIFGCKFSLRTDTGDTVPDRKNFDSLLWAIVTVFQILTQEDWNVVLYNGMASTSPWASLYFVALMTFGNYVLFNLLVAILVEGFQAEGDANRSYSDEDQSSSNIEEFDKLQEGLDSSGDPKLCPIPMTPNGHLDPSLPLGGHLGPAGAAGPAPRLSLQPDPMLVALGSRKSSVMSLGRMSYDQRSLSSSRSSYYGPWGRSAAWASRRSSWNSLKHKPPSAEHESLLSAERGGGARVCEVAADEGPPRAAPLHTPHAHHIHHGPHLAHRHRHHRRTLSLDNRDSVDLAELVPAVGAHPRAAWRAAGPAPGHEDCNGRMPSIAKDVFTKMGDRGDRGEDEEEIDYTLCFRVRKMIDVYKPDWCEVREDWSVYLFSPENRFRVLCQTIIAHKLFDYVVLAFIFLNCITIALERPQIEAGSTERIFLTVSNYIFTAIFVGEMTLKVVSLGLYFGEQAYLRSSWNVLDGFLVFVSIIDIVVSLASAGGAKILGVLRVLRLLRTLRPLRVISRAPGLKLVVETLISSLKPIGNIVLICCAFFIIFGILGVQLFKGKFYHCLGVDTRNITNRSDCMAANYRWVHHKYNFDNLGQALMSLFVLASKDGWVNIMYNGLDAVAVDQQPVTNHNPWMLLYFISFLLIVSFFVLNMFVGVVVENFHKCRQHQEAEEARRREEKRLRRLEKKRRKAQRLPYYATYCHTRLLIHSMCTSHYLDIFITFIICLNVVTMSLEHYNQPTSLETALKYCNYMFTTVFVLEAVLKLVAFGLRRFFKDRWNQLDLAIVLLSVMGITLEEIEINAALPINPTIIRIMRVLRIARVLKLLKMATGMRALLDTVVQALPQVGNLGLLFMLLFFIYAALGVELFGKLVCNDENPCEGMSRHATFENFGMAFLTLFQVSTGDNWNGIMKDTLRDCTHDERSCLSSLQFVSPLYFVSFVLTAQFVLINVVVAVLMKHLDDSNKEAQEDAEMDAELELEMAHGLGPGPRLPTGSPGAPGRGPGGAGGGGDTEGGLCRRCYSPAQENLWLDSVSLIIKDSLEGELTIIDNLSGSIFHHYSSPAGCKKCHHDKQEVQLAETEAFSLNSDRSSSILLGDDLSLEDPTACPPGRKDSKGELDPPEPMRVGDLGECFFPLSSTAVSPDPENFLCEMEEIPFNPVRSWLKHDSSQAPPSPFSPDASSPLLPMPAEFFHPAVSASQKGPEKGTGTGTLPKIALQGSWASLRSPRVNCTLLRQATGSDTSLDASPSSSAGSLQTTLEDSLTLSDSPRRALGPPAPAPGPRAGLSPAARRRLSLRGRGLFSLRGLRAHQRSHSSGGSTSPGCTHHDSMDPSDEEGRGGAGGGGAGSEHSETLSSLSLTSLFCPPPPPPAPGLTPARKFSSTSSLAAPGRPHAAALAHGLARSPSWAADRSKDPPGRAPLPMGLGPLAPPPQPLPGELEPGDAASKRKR

SMILES | AUClast [1] | t½ [1] | State dependency (Cav3) | IC50 (Cav3) | Plasma-free fraction [3] | Percent of inhibition (WAG/Rij rats) | Plasma concentration, mean ([4]; Visit 2 (Day 8), 4 mg BID) | Plasma concentration, mean ([4]; Visit 3 (Day 15), 8 mg BID) | Plasma concentration, mean ([4]; Visit 4 (Day 28), 10 mg BID) | concentration at 4 h ([4]; Visit 4 (Day 28), 10 mg BID) | AUC (in vivo; female, 5 mg/kg) | AUC (in vivo; female, 15 mg/kg) | AUC (in vivo; female, 100 mg/kg) | AUC (in vivo; female, 300 mg/kg) | AUC (in vivo; male, 5 mg/kg) | AUC (in vivo; male, 15 mg/kg) | AUC (in vivo; male, 100 mg/kg) | AUC (in vivo; male, 300 mg/kg) | fraction unbound [6] | AUC ([7]; female, 10 mg/kg) | other results
CC1(C)C[C@@H](CN2CCC(F)(CNC(=O)c3cc(Cl)cc(Cl)c3)CC2)CCO1 [TTA-P2] | 1.94 µM·h | 1.8 h | 1 fold | 84 to 196 nM | 5.7% |  |  |  |  |  |  |  |  |  |  |  |  |  |  |  | Cmax [1]: 480 nM; Tmax [1]: 0.7 h; Brain/plasma ratio [2]: 6.0; Harmaline-induced tremor (harmaline-induced tremor): normalized both physiologic tremor prior to harmaline administration and harmaline-induced tremor in a dose-dependent fashion
CC(C(=O)O)c1ccc(CC(=O)N[C@H](C)c2ccc(OCC(F)(F)F)cn2)cc1 (stereo partly shown) [M03] |  |  |  |  |  | 71% | 11 nM | 16 nM | 20 nM | 22 nM | 9.85 µM·h | 19.7 µM·h | 159 µM·h | 169 µM·h | 23.9 µM·h | 34.9 µM·h | 181 µM·h | 213 µM·h | 0.21 | 8.4 µM·h | Tmax ([5]; female): 8 h; Tmax ([5]; male): 24 h; AUC ([7]; female, 30 mg/kg): 15.4 µM·h; AUC ([7]; female, 100 mg/kg/day): 17.2 µM·h; AUC ([7]; male, 10 mg/kg): 10.5 µM·h; AUC ([7]; male, 30 mg/kg): 12.3 µM·h; AUC ([7]; male, 100 mg/kg/day): 79.6 µM·h; Potency and state dependence compared with CX-8998 (Cav3.3): significantly less potent and state dependent; IC50 (Cav3.3; [10]): 948 nM; IC50 (Cav3.3; [11]): 3320 nM; State dependence (Cav3.3): 3.5 fold; Kp at 2 h ([8]; brain and plasma, oral, read-out: Brain-to-plasma ratio): 0.01; Kp at 2 h ([8]; brain, po, read-out: Brain: Plasma Ratio): 0.01
C[C@@H](NC(=O)Cc1ccc(C2CC2)cc1)c1ccc(OCC(F)(F)F)cn1 [TTA-A2] | 30 µM·h | 1.5 h | ≥40 fold | 89 to 98 nM | 0.6% |  |  |  |  |  |  |  |  |  |  |  |  |  |  |  | 
CC(CO)c1ccc(CC(=O)N[C@H](C)c2ccc(OCC(F)(F)F)cn2)cc1 (stereo partly shown) [M04] |  |  |  |  |  | 60% | 4.5 nM | 4.9 nM | 5.6 nM | 6.4 nM | 3.19 µM·h | 8.04 µM·h | 61.9 µM·h | 55.3 µM·h | 1.32 µM·h | 2.47 µM·h | 15.5 µM·h | 19.4 µM·h | 0.13 | 2.19 µM·h | AUC ([7]; female, 30 mg/kg): 3.75 µM·h; AUC ([7]; female, 100 mg/kg/day): 8.1 µM·h; AUC ([7]; male, 10 mg/kg): 3.37 µM·h; AUC ([7]; male, 30 mg/kg): 2.25 µM·h; AUC ([7]; male, 100 mg/kg/day): 33.9 µM·h; Fold less potent than CX-8998 (Cav3.3): approximately 5 fold; IC50 (Cav3.3; [10]): 19 nM; IC50 (Cav3.3; [11]): 1810 nM; State dependence (Cav3.3): 95 fold
CCC1(C)CC(=O)NC1=O (stereo not shown) [Ethosuximide, ethosuximide] |  |  |  |  |  |  |  |  |  |  |  |  |  |  |  |  |  |  |  |  | Number and frequency of seizures (GAERS rats): only partially suppressed
Cc1cc2c(s1)Nc1ccccc1N=C2N1CCN(C)CC1 [olanzapine, reference compound] |  |  |  |  |  |  |  |  |  |  |  |  |  |  |  |  |  |  |  |  | Anxiety [9]: 0 (0.0); At least 1 adverse event [9]: 23 (48.9); Chronic pharyngitis [9]: 0 (0.0); Dizziness [9]: 1 (2.1); Headache [9]: 3 (6.4); Rhinopharyngitis [9]: 0 (0.0); Schizophrenia [9]: 1 (2.1); Sinus tachycardia [9]: 3 (6.4); Somnolence [9]: 3 (6.4)
